From paper PMC9781003, “Two Antenna-Enriched Odorant Binding Proteins in Dioryctria abietella Tuned to General Odorants and Insecticides” (Insects, 2022)
Where “and” joins values, the source holds several entries; their conditions need not be identical. Identical values can stand only once. Like-named read-outs stand apart in the source and are kept apart here.

Tests used:
DabiOBP5 = target: T1, DabiOBP5 (Dioryctria abietella, UniProt A0A8E6HS34); experiment: Competitive fluorescence binding assay with 1-NPN probe, recombinant DabiOBP5; conditions: for Ki: read-out: OBP5 Ki (dissociation constant), competitive displacement of 1-NPN, three replicates, mean ± SE
T1 sequence (A0A8E6HS34 19-139): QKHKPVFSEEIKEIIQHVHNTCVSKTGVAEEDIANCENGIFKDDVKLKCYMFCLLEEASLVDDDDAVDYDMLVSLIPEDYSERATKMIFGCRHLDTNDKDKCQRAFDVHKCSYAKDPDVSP
From the text: In the binding assays, we selected 100 compounds derived from host/non-host plants and man-made insecticides widely used for the control of lepidopteran pests, representing 88 general odorants (21 esters, 21 alcohols, 14 aldehydes, 13 alkenes, seven ketones, 11 alkanes and one acid) and 12 insecticides. These compounds and N-phenyl-1-naphthylamine (1-NPN) were purchased from Aladdin and Sigma-Aldrich, with the highest available purity. […] The concentrations of the work solution for each ligand and 1-NPN were set at 1 mM.
In order to measure the binding properties of the DabiOBPs to the 100 ligands, competitive binding assays were performed on a RF5301PC fluorescence spectrophotometer (Shimadzu, Japan). The concentrations of DabiOBPs and the fluorescent probe 1-NPN were set at 2 μM. […] Accordingly, binding constants (K1-NPN) of the DabiOBPs and 1-NPN were calculated using GraphPad Prism 7 (GraphPad Software Inc., San Diego, CA). […] For the ligands replacing over a half of 1-NPN fluorescence (50%) at 20 μM, three replicates were performed. The excitation wavelength was set at 337 nm and the emission peaks were recorded at around 400 nm.

DabiOBP14 = assay type: binding, Dioryctria abietella; conditions: for OBP14 F.D. (%) fluorescence displacement percent: ligand at 20 μM, DabiOBP14/1-NPN each 2 μM, Tris-HCl pH 7.4, NB = no binding; for Ki: competitive displacement of 1-NPN, three replicates, mean ± SE, read-out: OBP14 Ki (dissociation constant)
Description: In the binding assays, we selected 100 compounds derived from host/non-host plants and man-made insecticides widely used for the control of lepidopteran pests, representing 88 general odorants (21 esters, 21 alcohols, 14 aldehydes, 13 alkenes, seven ketones, 11 alkanes and one acid) and 12 insecticides. These compounds and N-phenyl-1-naphthylamine (1-NPN) were purchased from Aladdin and Sigma-Aldrich, with the highest available purity. They were first diluted into 100 mM, using methanol (HPLC purity grade, ≥99.9%) as a stock solution. The concentrations of the work solution for each ligand and 1-NPN were set at 1 mM.
In order to measure the binding properties of the DabiOBPs to the 100 ligands, competitive binding assays were performed on a RF5301PC fluorescence spectrophotometer (Shimadzu, Japan). The concentrations of DabiOBPs and the fluorescent probe 1-NPN were set at 2 μM. The binding of DabiOBPs to 1-NPN in 20 mM Tris-HCl buffer (pH 7.4) was measured by adding final concentrations of 2–16 μM 1-NPN. Accordingly, binding constants (K1-NPN) of the DabiOBPs and 1-NPN were calculated using GraphPad Prism 7 (GraphPad Software Inc., San Diego, CA). The binding of the DabiOBPs to various ligands was conducted by adding different concentrations of ligands (2, 4, 6, 8, 12, 16 and 20 μM) into the DabiOBP5/1-NPN (each 2 μM) or DabiOBP14/1-NPN (each 2 μM) mixtures. For the ligands replacing over a half of 1-NPN fluorescence (50%) at 20 μM, three replicates were performed. The excitation wavelength was set at 337 nm and the emission peaks were recorded at around 400 nm. The dissociation constants (Ki) of the tested ligands to DabiOBPs were computed, using the equation: Ki = [IC50]/(1 + [1-NPN]/K1-NPN), where [1-NPN] was the free concentration of 1-NPN and IC50 was the concentration of ligands replacing 50% of 1-NPN fluorescence.

[1] = ligand at 20 μM, DabiOBP5/1-NPN each 2 μM, Tris-HCl pH 7.4, NB = no binding, read-out: OBP5 F.D. (%) fluorescence displacement percent
[2] = ligand at 20 μM, DabiOBP5/1-NPN each 2 μM, Tris-HCl pH 7.4, NB = no binding
[3] = pH 7.4, read-out: OBP5 F.D. (%) fluorescence displacement percent

Row | Compound | inhibition at 20 µM (DabiOBP5; [1]) [%] | OBP14 F.D. (%) fluorescence displacement percent (DabiOBP14) [%] | other results
1 | N#Cc1nn(-c2c(Cl)cc(C(F)(F)F)cc2Cl)c(N)c1[S+]([O-])C(F)(F)F (centres unmarked) [Fipronil] | 23.7 | 29.70 | 
2 | CC(C)=CCC/C(C)=C/CO [Geraniol] | 32.9 | 28.67 | 
3 | CC(=O)OC/C=C(\C)CCC=C(C)C [Geranyl acetate] | 26.5 | 27.39 | 
4 | CCCCCCC=O [Heptanal] | 42.5 | 25.87 | 
5 | CCCCCCC [Heptane] | 31.4 | 22.91 | 
6 | CCCCCCCOC(C)=O [Heptyl acetate] | 41 | 33.70 | 
7 | CCCCCC=O [Hexanal] | 39.3 | 32.96 | 
8 | CCCCCCOC(C)=O [Hexyl acetate] | 23.7 | 29.22 | 
9 | O=[N+]([O-])NC1=NCCN1Cc1ccc(Cl)nc1 [Imidacloprid] | 22.5 | 39.56 | 
10 | CCCCCCCCCCCC(=O)O [Lauric acid] |  | 30.18 | OBP5 F.D. (%) fluorescence displacement percent (DabiOBP5; [2]): 33.87%
11 | C=C(C)[C@H]1CC=C(C)CC1 [Limonene] |  | 30.81 | OBP5 F.D. (%) fluorescence displacement percent (DabiOBP5; [2]): 38.31%
12 | C=CC(C)(O)CCC=C(C)C (centres unmarked) [Linalool] | 33.3 | 31.71 | 
13 | O=C1CCC[C@@H]2[C@H]3CCCN4CCC[C@@H](CN12)[C@@H]34 [Matrine] | 29 | 29.59 | 
14 | COC(C)=O [Methyl acetate] |  | 27.21 | OBP5 F.D. (%) fluorescence displacement percent (DabiOBP5; [2]): 27.62%
15 | COC(=O)c1ccccc1 [Methyl benzoate] | 30.5 | 30.65 | 
16 | CCCCCCCCCCCC(=O)OC [Methyl laurate] | 7.25 | 12.60 | 
17 | C=CC(=C)CCC=C(C)C [Myrcene] | 37.1 | 34.84 | 
18 | CCCCCCCCCCCCCCCCCCC [Nonadecane] | 27.7 | 15.30 | 
19 | CCCCCCCCC=O [Nonanal] | 31.5 | 23.55 | 
20 | CCCCCCCCCOC(C)=O [Nonyl acetate] | 16.5 | 22.98 | 
21 | C=CC(C)=CCC=C(C)C [Ocimene] |  | 33.18 | OBP5 F.D. (%) fluorescence displacement percent (DabiOBP5; [2]): 33.97%
22 | CCCCCCCCCCCCCCCCCC [Octadecane] | 26.5 | 23.94 | 
23 | CCCCCCCC=O [Octanal] | 35.6 | 34.48 | 
24 | CCCCCCCCOC(C)=O [Octyl acetate] | 35.4 | 30.09 | 
25 | OCCc1ccccc1 [Phenethyl alcohol] | 37.6 | 10.00 | 
26 | O=C(Oc1ccccc1)c1ccccc1 [Phenyl benzoate] | 31.7 | 34.36 | 
27 | O=CCc1ccccc1 [Phenylacetaldehyde] | 29.1 | 33.05 | 
28 | CCOP(=S)(OCC)O/N=C(\C#N)c1ccccc1 [Phoxim] |  | 89.62 | inhibition at 20 µM (DabiOBP5; [3]): 82%; Ki (DabiOBP5): < 13 µM and 2.89 µM; Ki (DabiOBP14; listed as phoxim): < 13 µM; Ki (DabiOBP14): 2.38 ± 0.28 µM
29 | CCCOC(C)=O [Propyl acetate] | 31.4 | 25.46 | 
30 | C=C(C)[C@H]1Cc2c(ccc3c2O[C@@H]2COc4cc(OC)c(OC)cc4[C@@H]2C3=O)O1 [Rotenone] |  | 58.66 | inhibition at 20 µM (DabiOBP5; [3]): 56%; Ki (DabiOBP5): < 13 µM and 12.7 µM; Ki (DabiOBP14): < 13 µM and 10.2 µM
